# System: Plasmodium falciparum
# Experiment: GSK_TCMDC: Inhibition of Plasmodium falciparum 3D7 in whole erythrocytes, using parasite LDH activity as an index of growth.
# Assay type: functional, organism-based
# Conditions: Plasmodium falciparum, 3D7
smiles,measurement,value
O=C(NC1CCCCN(Cc2ccccc2O)C1)c1cccc(Cl)c1 (centres undefined),XC50,1060 nM
Cc1ccc(N2C(N)=NC(N)=NC2(C)C)cc1Cl,XC50,6.82 nM
CN1CCC(C(=O)Nc2cccc(-c3cccc(-c4nc5cc(F)ccc5[nH]4)c3)c2)CC1,XC50,695 nM
N=C(N)NCCCN(Cc1ccccc1)c1ccccc1,XC50,579 nM
CC(C)(C)c1cc([N+](=O)[O-])cc(C(=O)Nc2ccccc2C(F)(F)F)c1O,XC50,652 nM
CC[C@@]1(O)C(=O)OCc2c1cc1n(c2=O)Cc2c-1nc1cc3c(cc1c2CN1CCN(C)CC1)OCCO3,XC50,446 nM
CC(C)(C)c1ccc(CNC(=O)/C=C/c2ccc(CNC3CCNCC3)cc2)cc1,XC50,1090 nM
COc1cc(C=NN=c2cc(C)[nH]c3ccccc23)cc(OC)c1OC,XC50,730 nM
O=C(C=Cc1ccc(Cl)c(Cl)c1)NC1CCN(CCc2ccccc2)CC1,XC50,594 nM
CS(=O)(=O)CCNc1nccc(N2CCc3ncnc(Nc4ccc(OCc5cccc(F)c5)c(Cl)c4)c3C2)n1,XC50,132 nM
CCOC(=O)C(C#N)NC(=O)C=Cc1ccccc1 (centres undefined),XC50,804 nM
CCN1CCN(Cc2ccc(-c3ccc(NS(=O)(=O)c4cccc5cccnc45)cc3)cc2)CC1,XC50,922 nM
C#CCN(Cc1ccc2[nH]c(N)nc(=O)c2c1)c1ccc(C(=O)N[C@@H](CCC(=O)O)C(=O)O)cc1,XC50,217 nM
Oc1ccc2[nH]cc(C3=CCN(Cc4ccccc4)CC3)c2c1,XC50,983 nM
Clc1ccc(-c2[nH]c3ccccc3c2CN2CCC(N3CCCCC3)CC2)cc1,XC50,1060 nM
Cc1ccc(CNC(=N)NC(=O)c2nc(Cl)c(NCc3ccc(Cl)cc3)nc2N)c(C)c1,XC50,167 nM
COc1ccc(OC)c(-c2cccc(-c3cccc(NC(=O)c4ccc([N+](=O)[O-])o4)c3)n2)c1,XC50,371 nM
O=C(Nc1ccc(Cl)cc1)Nc1ccc(OCC(O)CN2CCCCC2)cc1 (centres undefined),XC50,1160 nM
CCn1cnc2c(N3CCCCS3(=O)=O)cc(C(=O)N[C@@H](Cc3ccccc3)[C@H](O)CNC3CCOCC3)cc21,XC50,712 nM
O=C(NCCN1CCCCC1)N1CCCN(c2ncnc3cc(-c4ccccc4)sc23)CC1,XC50,231 nM
COc1cc(NC2CCCC(NCc3cn(S(=O)(=O)c4ccccc4)c4ccccc34)C2)nc2ccccc12 (centres undefined),XC50,248 nM
CC(=O)C1(c2ccccc2)CCN(CCC2(c3ccc(Cl)c(Cl)c3)CN(C(=O)c3cccc(Cl)c3)CCO2)CC1 (centres undefined),XC50,854 nM
CC1(C)N=C(N)N=C(N)N1c1cccc(C(F)(F)F)c1,XC50,8.62 nM
CC[C@H]1CN2CC[C@H]1C[C@H]2[C@H](O)c1cc(-c2ccc(F)cc2)nc2ccc(OC)cc12,XC50,49.7 nM
COCc1ccc(CN2CCC(C(=O)Nc3ccc(-c4nc5ccccc5[nH]4)cc3)CC2)o1,XC50,853 nM
N#Cc1ccc2c(c1)CCN(CCC1CCC(NC(=O)Nc3ccnc4ccccc34)CC1)C2 (centres undefined),XC50,377 nM
Cc1nc(N)nc(N)c1-c1ccc(Br)cc1,XC50,232 nM
COc1ccc(-n2ccnc2SCC(=O)Nc2cc(Cl)ccc2OC)c(OC)c1,XC50,734 nM
Cc1ccc2c(OCCN3CCC(Cc4ccc5c(c4)NC(=O)CO5)CC3)cc(F)cc2n1,XC50,755 nM
CCN1CCN(c2cc(C)c3cc(NC(=O)c4cc(OC)cc(OC)c4)ccc3n2)CC1,XC50,156 nM
CC(NCC(O)Cn1c2ccccc2c2ccccc21)c1ccccc1 (centres undefined),XC50,931 nM
Cc1cccc2nc(-c3ccc(-c4cccc(NC(=O)NCc5ccc(F)cc5)c4)cc3)[nH]c12,XC50,146 nM
Cc1ccc(NC(=O)NC2CCN(c3ccnc4cc(Cl)ccc34)CC2)cc1,XC50,315 nM
O=C(/C=C/c1ccc(Cl)cc1)NCCCCCN1CCCC(C(=O)Nc2ccc(Cl)cc2)C1 (centres undefined),XC50,1050 nM
O=C(N[C@@H](CC1CCCCC1)C(=O)NCCN1CCCC1)c1ccc(O)c(-c2cccc(C(F)(F)F)c2)c1,XC50,760 nM
O=C(/C=C/c1ccc(Cl)c(Cl)c1)NC1CCC(N2CCC(c3c[nH]c4ccccc34)CC2)CC1 (centres undefined),XC50,876 nM
Cc1ccc(CNC(=O)[C@H](CC(C)C)Nc2cc(C)nc(NCC3CCCCC3)n2)cc1,XC50,926 nM
Cc1cccc2nc(-c3cccc(-c4cccc(NC(=O)CNC(=O)c5ccc(O)cc5)c4)c3)[nH]c12,XC50,990 nM
O=C1COc2ccccc2N1CCN1CCC(NCc2ccc(-c3cccs3)cc2)CC1,XC50,1430 nM

# Reference: ChEMBL document CHEMBL1157539, “Thousands of chemical starting points for antimalarial lead identification” (Nature, 2010)
